Assay results published in publication PMC2965657, “Antioxidant Biomarkers from Vanda coerulea Stems Reduce Irradiated HaCaT PGE-2 Production as a Result of COX-2 Inhibition” (PLoS ONE, 2010).
Like-named read-outs stand apart in the source and are kept apart here.

Tests used:
[1] = •OH radical scavenging (luminol chemiluminescence); conditions: mean ± sd
Experimental: (§1) All in vitro radical-scavenging experiments (DPPH, ^•OH/luminol chemiluminescence) and IC50 calculations were assayed as previously described by Parejo et al. Results were expressed as percentage inhibition of DPPH discolouration and luminol chemiluminescence reduction, respectively. The concentration effect (logarithmic curve) obtained for each compound was used to calculate IC50. Serial dilutions of 1–5, and quercetin (used as standard reference) were prepared in MeOH.

[2] = DPPH radical scavenging (DPPH discolouration); conditions: mean ± sd; half-maximal neutralization of radical DPPH
Experimental: as §1

[3] = tested on: COX-2 expression in irradiated HaCaT cells; experiment: COX-2 expression by Western blot in UVB irradiated HaCaT; type: cell-based, human; conditions: 2.87 µM, 16 h, COX-2/β-actin vs UVB+
Experimental: (§2) For measurement of reactive oxygen species neutralization and PGE-2 quantification with Vanda coerulea stem biomarkers, HaCaT cells were seeded in black 96-well microplates (Greiner Bio One 655090) at a concentration of 10^3 cells/well in complemented KSFM with 5% FBS. Microplates were incubated during 24 h (37°C, 5% CO2) before UVB irradiation at 60 mJ/cm^2 and treatment. For western blot analysis HaCaT cells were seeded at a density of 10^6 cells/ 100 mm dishes and incubated during 48 h before irradiation with UVB at 60 mJ/cm^2 (UV Lamp, VL-6LM, Vilber Lourmat) and treatment. All experiments were performed at 90% cell confluency. Cell viability was previously evaluated thanks to XTT analysis according to Roehm NW et al. Serial dilutions of 1–3, were prepared in DMSO (0.1% v/v final concentration). The first higher concentration tested was not cytotoxic (data not shown).
After UVB irradiation 100 mm dishes were treated with stilbenoids 1–3 at 23 µM and 2.87 µM in a serum free medium and incubated during 16 h (37°C, 5% CO2). Untreated irradiated (UVB+) and non irradiated (UVB-) cells were used as positive and negative controls respectively. […] The protein concentration of each sample was determined using a Bradford assay. […] Results were expressed as fold decrease compared to the (UVB+) control. […]

human recombinant COX-2 = molecular target: T1, human recombinant COX-2 (Homo sapiens, UniProt P35354); experiment: COX-2 enzyme activity (PGE-2 formation from arachidonic acid); type: biochemical; conditions: for IC50: 2 µM arachidonic acid, mean ± sd, read-out: IC50 inhibition of COX-2 enzyme activity; for inhibition of COX-2 enzyme activity: up to 100 µM
T1 sequence (P35354 18-604): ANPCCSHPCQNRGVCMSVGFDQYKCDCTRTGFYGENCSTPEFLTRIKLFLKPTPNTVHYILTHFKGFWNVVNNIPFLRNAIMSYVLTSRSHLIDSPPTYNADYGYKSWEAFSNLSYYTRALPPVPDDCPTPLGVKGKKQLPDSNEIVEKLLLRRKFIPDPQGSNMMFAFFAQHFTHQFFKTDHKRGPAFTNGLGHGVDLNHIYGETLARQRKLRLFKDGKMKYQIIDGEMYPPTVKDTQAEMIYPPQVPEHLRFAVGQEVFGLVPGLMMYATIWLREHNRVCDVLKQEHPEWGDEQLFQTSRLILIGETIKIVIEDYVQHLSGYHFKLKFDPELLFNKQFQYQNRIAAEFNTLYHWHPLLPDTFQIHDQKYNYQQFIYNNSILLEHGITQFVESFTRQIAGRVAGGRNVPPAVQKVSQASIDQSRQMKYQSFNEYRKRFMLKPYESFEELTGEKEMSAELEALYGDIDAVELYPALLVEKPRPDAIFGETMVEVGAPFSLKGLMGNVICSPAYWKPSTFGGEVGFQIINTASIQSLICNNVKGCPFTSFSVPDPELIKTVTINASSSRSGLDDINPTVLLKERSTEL
Experimental: Serial dilutions of 1–3 were prepared in DMSO. Six concentrations were tested from 0.1 µM to 100 µM for imbricatin (1), from 0.03 to 100 µM for methoxycoelonin (2) and from 0.3 µM to 100 µM for gigantol (3).
Stilbenoids 1–3, indomethacin and water (negative control) were pre-incubated for 20 min at 22°C with the human recombinant COX-2 enzyme (0.2 µg) in buffer containing 100 mM Tris-HCl (pH 8.0), 2 mM phenol and 1 µM hematine. Thereafter, the reaction was initiated by addition of 2 µM arachidonic acid and the mixture was incubated for 5 min at 22°C. For basal control measurements, arachidonic acid was omitted from the medium. Indomethacin was used as positive inhibitory reference.
Following incubation, the reaction was stopped by the addition of 1 M HCl then 1 M Tris/HCl (pH 8.0) followed by cooling to 4°C. The amount of PGE-2 present in the reaction mixture was quantified using an EIA detection kit (Cayman Chemical).
The results were expressed as inhibition percentage of the control enzyme activity:
100–[(activity measured in the presence of the compound/control enzyme activity) ×100]
The IC50 values (concentration causing a half-maximal inhibition of control enzyme activity) and Hill coefficients (nH) were determined by non-linear regression analysis of the inhibition curves generated with mean replicate values using Hill equation curve fitting.

[4] = cited from earlier work
[5] = tested on: H2O2 stressed HaCaT cells; experiment: Intracellular ROS neutralization with DCFH-DA probe in H2O2 stressed HaCaT; type: cell-based; conditions: Homo sapiens, H2O2 100 µM, mean ± sd
Experimental: as §2
The DCFH-DA method was used to detect the levels of intracellular ROS [32] DCFH-DA diffuses into cells, where it is hydrolyzed by intracellular esterase to polar 2′,7′-dichlorodihydrofluorescein. This non-fluorescent fluorescein analog is oxidized by intracellular oxidants to a highly fluorescent, 2′,7′-dichlorofluorescein. Tocopherol [Sigma] (25 µM) was used as a positive reference. HaCaT cells were seeded as described and treated with serial dilutions of 1–3 and quercetin (standard reference) after 24 h incubation. Treated microplates were further incubated during 24 h (37°C, 5% CO2). HaCaT cells were washed with phosphate buffer saline (PBS), and DCFH-DA (0.05 mM) was added to the cells. 45 min after incubation, cells were stimulated by a H2O2 solution (100 µM in PBS) to generate an oxidative stress. Immediately after F(T0) and 40 min after stimulation F(T40), DCFH fluorescence was detected at an excitation wavelength of 485 nm and an emission wavelength of 535 nm, using a SpectraFluor Plus spectrofluorometer (Tecan). Two kinds of assay controls were used: negative control was non-stimulated cells and positive control was H2O2 stressed cells (DMSO 0.1% v/v). Results were expressed in percentage of fluorescence inhibition (% of ROS neutralization) calculated by comparison with H2O2 stimulated cells.
(% of ROS neutralization) = [1- [F(T40)-F(T0)] sample/[F(T40)-F(T0)] positive control] ×100.
Inhibition percentages were plotted according to compounds 1–3 and quercetin concentrations. Logarithmic regression analysis of the mean replicate values was used to calculate IC50 (Concentration causing half-maximal neutralization of ROS on H2O2 stressed HaCaT)

[6] = tested on: UVB (60 mJ/cm^2) irradiated HaCaT keratinocytes; experiment: PGE-2 production by UVB irradiated HaCaT (EIA); type: cell-based, human; conditions: for IC50: read-out: IC50 inhibition of HaCaT PGE-2 production
Experimental: as §2
Indomethacin (2.79 µM), a non-steroidal COX inhibitor, was used as a positive reference. Treated microplates were incubated at 37°C, 5% CO2. Untreated irradiated and non irradiated cells (DMSO 0.1% v/v final) were respectively used as positive and negative controls. After 24 h, supernatants were harvested for PGE-2 concentration measurement and BCA assay was realized to determine total cellular protein in each well. PGE-2 concentration was measured using the enzyme immunoassay Parameter™ PGE-2 kit (R&D Systems) according to the manufacturer's instructions. Each PGE-2 quantification (QPGE-2) was reported to total protein concentration per well.
Results were expressed as inhibition percentage of PGE-2 (I PGE-2) production compared with untreated irradiated cells (positive control).
I PGE-2 = 100- ((QPGE2) sample/ (QPGE2) positive control) ×100.
Inhibition percentages were plotted according to compounds 1–3 concentrations. Logarithmic regression analysis of the mean replicate values was used to calculate IC50 (Concentration causing half-maximal Inhibition of irradiated HaCaT PGE-2 production)

[7] = tested on: irradiated (UVB 60 mJ/cm2) normal human epidermal keratinocytes (NHEK); experiment: PGE-2 release from UVB irradiated normal human epidermal keratinocytes; type: cell-based; conditions: light or radiation study, vs UVB+ control, read-out: inhibition of PGE-2 production
Experimental: Supplementary file pone.0013713.s001.tif: Figure S1 Concentration-dependent effect of stilbenoids (1-3) on PGE-2 release from irradiated (UVB 60 mJ/cm2) normal human epidermal keratinocytes (NHEK). Histogram represents the quantity of PGE-2 produced (PGE-2/ total NHEK proteins pg/µg) according to different treatments. Untreated irradiated (UVB+) and non irradiated (UVB-) NHEK were used as positive and negative controls, respectively. […] Inhibition percentages of PGE-2 release were calculated by comparison with the positive control (UVB+). Values represen mean ± sds calculated with three independent experiments. Treatment groups were compared by using one way analysis of variance ANOVA post-hoc test. Student paired t test was used to compare each stilbenoid effect to the positive control. Statistical significance (*) was set at p<0.05. Significant differences were observed between each biomarker effect. IC50 were calculated with more points than those represented here on the graph. (0.82 MB TIF) Click here for additional data file.

[8] = Homo sapiens, light or radiation study, UVB 60 mJ/cm^2 irradiated HaCaT, 24 h, mean ± sd

Molecule	IC50 [1] [µM]	IC50 [2] [µM]	IC50 (human recombinant COX-2) [µM]	inhibition of COX-2 enzyme activity (human recombinant COX-2)	IC50 [5] [µM]	IC50 [6, 8] [µM]	other results
Oc1cc2c3c(c1)COc1cc(O)cc(c1-3)CC2 [Flavidin (4), Flavidin]	0.076 ± 0.014	6.61 ± 1.07					
COc1cc(O)cc(CCc2ccc(O)c(OC)c2)c1 [Gigantol (3), Gigantol]	0.157 ± 0.039	14 ± 1.69	≥ 100	did not display significant inhibition	20.6 ± 0.5		effect on UVB-induced COX-2 expression [3]: did not inhibit; IC50 ([4]; Zhang X et al): 56.4 µM; inhibition of PGE-2 production ([6]; 2.87 µM, UVB irradiated HaCaT): strong inhibition; fold stronger inhibition of PGE-2 production on human HaCaT than on murine macrophage RAW 264.7 ([6]; HaCaT (this work) versus RAW 264.7 (ref 38)): 16 fold; IC50 inhibition of HaCaT PGE-2 production ([6]; UVB 60 mJ/cm^2 irradiated HaCaT, 24 h, mean ± sd): No concentration-dependanteffect
COc1ccc2c(c1)c(CC(=O)O)c(C)n2C(=O)c1ccc(Cl)cc1 [Indomethacin, reference compound]						2.7 ± 0.7	inhibition at 2.79 µM ([6]; Homo sapiens, light or radiation study, 2.79 µM, UVB irradiated HaCaT, vs UVB+ control): 54%; inhibition at 2.79 µM [7]: 86%
Coelonin [Coelonin (5)]	0.079 ± 0.018	8.47 ± 1.58					IC50 ([4]; Wang J et al): 16.7 µM

The next lines start with results.

IC50 [1] [µM]	IC50 [2] [µM]	IC50 (human recombinant COX-2) [µM]	inhibition of COX-2 enzyme activity (human recombinant COX-2)	Molecule	IC50 [5] [µM]	IC50 [6, 8] [µM]	other results
0.034 ± 0.011	8.37 ± 0.61	12 ± 1.2	inhibited significantly	COc1c(O)cc2c3c1COc1cc(O)cc(c1-3)CC2 [Imbricatin (1), Imbricatin]	8.8 ± 1.7	12.2 ± 2.9	IC50 ([4]; Guo XY et al): 8.8 µM
0.035 ± 0.008	9.01 ± 0.93	5.8 ± 1.2	inhibited significantly	COc1cc2c(cc1O)CCc1cc(O)cc(OC)c1-2 [Methoxycoelonin (2), Methoxycoelonin]	9.4 ± 2.1	19.3 ± 3.8	
0.045 ± 0.012	2.42 ± 0.65			O=c1c(O)c(-c2ccc(O)c(O)c2)oc2cc(O)cc(O)c12 [Quercetin, reference compound]	13.8 ± 2.2		
